Assay results published in the kinase profiling compilation of Christmann-Franck et al. (2016).

Experiments:
Assay in all cases: KINOMEscan competition binding
[1] = molecular target: ABL1 (human), P00519 [Q252H]
[2] = molecular target: JAK2 JH1 catalytic (human) (UniProt O60674)
[3] = molecular target: PIM1 (human) (UniProt P11309)
[4] = molecular target: FER (human) (UniProt P16591)
[5] = molecular target: MINK1 (human) (UniProt Q8N4C8)
[6] = molecular target: PAK2 (human) (UniProt Q13177)
[7] = molecular target: FGFR3 (human) (UniProt P22607)
Chain of FGFR3 (human) (P22607 whole entry, looked up): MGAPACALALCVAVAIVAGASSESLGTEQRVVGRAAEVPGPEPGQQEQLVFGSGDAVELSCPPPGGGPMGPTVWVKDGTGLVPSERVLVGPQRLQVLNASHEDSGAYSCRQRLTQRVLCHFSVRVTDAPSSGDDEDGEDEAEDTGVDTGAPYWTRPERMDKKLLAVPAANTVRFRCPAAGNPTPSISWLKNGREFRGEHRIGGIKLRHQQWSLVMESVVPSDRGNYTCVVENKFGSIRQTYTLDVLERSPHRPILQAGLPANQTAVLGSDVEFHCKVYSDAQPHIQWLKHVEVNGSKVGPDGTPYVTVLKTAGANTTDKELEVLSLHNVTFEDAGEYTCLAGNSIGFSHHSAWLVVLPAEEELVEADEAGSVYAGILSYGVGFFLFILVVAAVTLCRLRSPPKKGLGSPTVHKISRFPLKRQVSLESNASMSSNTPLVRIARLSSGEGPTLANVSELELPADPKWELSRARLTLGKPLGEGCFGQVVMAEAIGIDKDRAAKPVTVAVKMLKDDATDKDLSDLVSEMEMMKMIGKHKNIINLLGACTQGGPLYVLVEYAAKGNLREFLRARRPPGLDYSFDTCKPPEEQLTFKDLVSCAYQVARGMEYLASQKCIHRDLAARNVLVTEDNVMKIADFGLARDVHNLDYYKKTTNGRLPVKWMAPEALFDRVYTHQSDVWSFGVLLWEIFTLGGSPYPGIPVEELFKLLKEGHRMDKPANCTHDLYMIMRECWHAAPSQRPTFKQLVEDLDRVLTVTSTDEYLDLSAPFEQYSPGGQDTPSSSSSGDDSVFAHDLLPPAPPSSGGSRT

[8] = molecular target: PRKACA (human) (UniProt P17612)
[9] = molecular target: CDC42BPA (human) (UniProt Q5VT25)
[10] = molecular target: EPHB4 (human) (UniProt P54760)
[11] = molecular target: CLK1 (human) (UniProt P49759)
[12] = molecular target: MAPK10 (human) (UniProt P53779)
[13] = molecular target: CDKL2 (human) (UniProt Q92772)
[14] = molecular target: DYRK1A (human) (UniProt Q13627)
[15] = molecular target: TEK (human) (UniProt Q02763)
Chain of TEK (human) (Q02763 whole entry, looked up): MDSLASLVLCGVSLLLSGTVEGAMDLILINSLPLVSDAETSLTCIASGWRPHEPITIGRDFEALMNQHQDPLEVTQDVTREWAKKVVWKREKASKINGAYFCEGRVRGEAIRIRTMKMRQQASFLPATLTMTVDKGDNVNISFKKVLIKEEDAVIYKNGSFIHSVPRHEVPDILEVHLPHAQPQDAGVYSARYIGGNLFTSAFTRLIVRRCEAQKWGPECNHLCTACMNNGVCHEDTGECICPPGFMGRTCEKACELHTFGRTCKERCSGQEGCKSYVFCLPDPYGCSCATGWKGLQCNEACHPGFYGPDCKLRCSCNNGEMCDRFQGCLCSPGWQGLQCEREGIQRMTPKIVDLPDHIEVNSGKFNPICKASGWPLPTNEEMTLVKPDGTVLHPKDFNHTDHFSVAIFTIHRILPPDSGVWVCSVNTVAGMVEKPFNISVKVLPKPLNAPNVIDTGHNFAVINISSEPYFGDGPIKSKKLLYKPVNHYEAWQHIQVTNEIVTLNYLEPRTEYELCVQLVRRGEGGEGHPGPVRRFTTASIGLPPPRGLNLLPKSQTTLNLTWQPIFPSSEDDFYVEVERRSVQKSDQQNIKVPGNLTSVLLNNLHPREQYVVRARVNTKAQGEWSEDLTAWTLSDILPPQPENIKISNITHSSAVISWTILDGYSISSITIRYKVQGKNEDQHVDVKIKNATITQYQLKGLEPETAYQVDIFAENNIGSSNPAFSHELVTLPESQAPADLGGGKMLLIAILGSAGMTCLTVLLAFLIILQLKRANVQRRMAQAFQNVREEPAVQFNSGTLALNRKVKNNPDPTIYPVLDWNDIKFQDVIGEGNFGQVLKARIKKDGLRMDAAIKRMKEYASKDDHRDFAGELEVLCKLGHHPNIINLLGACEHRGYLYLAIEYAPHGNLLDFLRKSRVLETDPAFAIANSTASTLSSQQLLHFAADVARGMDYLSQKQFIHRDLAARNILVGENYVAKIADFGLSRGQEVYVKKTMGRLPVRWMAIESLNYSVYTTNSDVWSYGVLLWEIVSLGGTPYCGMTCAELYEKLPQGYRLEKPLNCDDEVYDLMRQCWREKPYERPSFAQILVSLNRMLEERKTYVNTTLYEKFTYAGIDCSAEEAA

[16] = molecular target: MET (human) (UniProt P08581)
[17] = molecular target: PIK3CA (human), P42336 [Q546K]
[18] = molecular target: DYRK2 (human) (UniProt Q92630)
[19] = molecular target: PDGFRA (human) (UniProt P16234)
[20] = molecular target: RPS6KA6 KD2 (human) (UniProt Q9UK32)
[21] = molecular target: BMP2K (human) (UniProt Q9NSY1)
[22] = molecular target: ERBB4 (human) (UniProt Q15303)
[23] = molecular target: ALK (human) (UniProt Q9UM73)
[24] = molecular target: MAP4K4 (human) (UniProt O95819)
[25] = molecular target: PRKCQ (human) (UniProt Q04759)
[26] = molecular target: PIK3CA (human), P42336 [C420R]
[27] = molecular target: MERTK (human) (UniProt Q12866)
Chain of MERTK (human) (Q12866 whole entry, looked up): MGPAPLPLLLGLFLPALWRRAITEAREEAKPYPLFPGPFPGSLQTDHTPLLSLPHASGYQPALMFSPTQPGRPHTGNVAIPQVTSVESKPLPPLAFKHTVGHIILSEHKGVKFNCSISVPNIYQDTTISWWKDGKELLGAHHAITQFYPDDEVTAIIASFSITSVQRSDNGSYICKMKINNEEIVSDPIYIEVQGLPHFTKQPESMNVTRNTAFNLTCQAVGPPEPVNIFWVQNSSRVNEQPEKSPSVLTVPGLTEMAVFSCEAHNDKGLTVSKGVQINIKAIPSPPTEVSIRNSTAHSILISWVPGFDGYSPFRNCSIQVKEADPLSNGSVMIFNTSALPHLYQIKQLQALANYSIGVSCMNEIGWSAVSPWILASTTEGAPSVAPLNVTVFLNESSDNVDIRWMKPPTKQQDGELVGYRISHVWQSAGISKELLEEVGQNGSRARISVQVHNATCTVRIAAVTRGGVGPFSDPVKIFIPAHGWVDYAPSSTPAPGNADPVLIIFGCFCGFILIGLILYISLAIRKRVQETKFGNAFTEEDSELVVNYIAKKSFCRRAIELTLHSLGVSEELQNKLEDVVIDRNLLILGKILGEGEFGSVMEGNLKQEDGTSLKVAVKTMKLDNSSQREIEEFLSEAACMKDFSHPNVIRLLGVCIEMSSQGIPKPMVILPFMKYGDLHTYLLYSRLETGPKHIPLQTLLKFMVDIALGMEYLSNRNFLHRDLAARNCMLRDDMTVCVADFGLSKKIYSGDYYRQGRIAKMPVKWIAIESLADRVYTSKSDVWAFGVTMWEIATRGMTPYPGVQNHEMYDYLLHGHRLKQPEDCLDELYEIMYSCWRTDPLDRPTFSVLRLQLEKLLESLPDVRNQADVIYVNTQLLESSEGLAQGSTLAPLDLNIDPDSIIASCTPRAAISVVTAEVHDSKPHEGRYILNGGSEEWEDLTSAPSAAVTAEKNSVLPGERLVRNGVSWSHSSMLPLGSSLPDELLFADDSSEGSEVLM

[28] = molecular target: MKNK1 (human) (UniProt Q9BUB5)
[29] = molecular target: CHUK (human) (UniProt O15111)
Chain of CHUK (human) (O15111 whole entry, looked up): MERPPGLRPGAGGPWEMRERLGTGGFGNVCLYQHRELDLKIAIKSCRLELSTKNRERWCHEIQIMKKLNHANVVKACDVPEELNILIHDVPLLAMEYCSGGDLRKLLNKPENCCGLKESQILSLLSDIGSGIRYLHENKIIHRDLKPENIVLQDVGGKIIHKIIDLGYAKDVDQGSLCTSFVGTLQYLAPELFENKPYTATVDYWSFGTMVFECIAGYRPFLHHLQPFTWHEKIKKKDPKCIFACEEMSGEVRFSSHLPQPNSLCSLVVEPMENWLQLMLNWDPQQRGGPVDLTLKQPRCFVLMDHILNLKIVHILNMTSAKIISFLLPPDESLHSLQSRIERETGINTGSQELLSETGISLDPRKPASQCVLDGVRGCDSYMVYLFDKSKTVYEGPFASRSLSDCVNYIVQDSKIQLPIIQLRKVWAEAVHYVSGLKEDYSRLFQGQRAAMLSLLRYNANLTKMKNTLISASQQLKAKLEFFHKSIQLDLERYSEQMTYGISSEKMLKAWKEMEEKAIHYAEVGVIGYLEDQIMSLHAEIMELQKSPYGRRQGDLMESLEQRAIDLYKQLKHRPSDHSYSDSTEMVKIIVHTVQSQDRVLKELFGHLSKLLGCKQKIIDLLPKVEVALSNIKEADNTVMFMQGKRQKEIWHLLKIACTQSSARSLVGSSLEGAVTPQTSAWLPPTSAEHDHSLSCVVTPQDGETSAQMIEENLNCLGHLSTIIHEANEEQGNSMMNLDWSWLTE

[30] = molecular target: FLT3 (human), P36888 [D835H]
[31] = molecular target: STK33 (human) (UniProt Q9BYT3)
[32] = molecular target: MYLK (human) (UniProt Q15746)
[33] = molecular target: CSK (human) (UniProt P41240)
[34] = molecular target: MAP2K1 (human) (UniProt Q02750)
[35] = molecular target: MAP3K7 (human) (UniProt O43318)
[36] = molecular target: MYLK3 (human) (UniProt Q32MK0)
Chain of MYLK3 (human) (Q32MK0 whole entry, looked up): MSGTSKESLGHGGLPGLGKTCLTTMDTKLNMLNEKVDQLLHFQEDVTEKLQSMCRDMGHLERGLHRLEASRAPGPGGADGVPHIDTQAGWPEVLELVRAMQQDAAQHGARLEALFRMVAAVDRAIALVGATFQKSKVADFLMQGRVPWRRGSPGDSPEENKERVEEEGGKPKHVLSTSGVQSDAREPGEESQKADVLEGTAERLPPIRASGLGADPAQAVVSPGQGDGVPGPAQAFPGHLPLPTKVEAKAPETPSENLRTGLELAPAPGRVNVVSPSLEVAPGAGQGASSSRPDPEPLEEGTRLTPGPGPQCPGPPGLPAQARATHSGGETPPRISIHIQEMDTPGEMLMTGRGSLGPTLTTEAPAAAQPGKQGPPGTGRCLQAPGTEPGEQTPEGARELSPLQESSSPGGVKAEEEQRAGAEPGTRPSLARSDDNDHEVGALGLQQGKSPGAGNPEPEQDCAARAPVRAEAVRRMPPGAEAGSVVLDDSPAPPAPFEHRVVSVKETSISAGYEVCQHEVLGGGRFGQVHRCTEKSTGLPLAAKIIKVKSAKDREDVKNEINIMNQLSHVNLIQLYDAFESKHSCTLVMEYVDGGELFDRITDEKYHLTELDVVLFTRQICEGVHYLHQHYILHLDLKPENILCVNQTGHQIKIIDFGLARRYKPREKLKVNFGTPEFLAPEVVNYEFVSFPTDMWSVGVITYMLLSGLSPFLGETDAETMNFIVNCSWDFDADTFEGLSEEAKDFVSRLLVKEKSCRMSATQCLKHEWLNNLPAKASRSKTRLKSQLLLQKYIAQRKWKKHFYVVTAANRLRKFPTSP

[37] = molecular target: PRKD1 (human) (UniProt Q15139)
[38] = molecular target: MAP2K2 (human) (UniProt P36507)
[39] = molecular target: CDK11B (human) (UniProt P21127)
[40] = molecular target: TNK2 (human) (UniProt Q07912)

Chain of PIM1 (human) (P11309 whole entry, looked up): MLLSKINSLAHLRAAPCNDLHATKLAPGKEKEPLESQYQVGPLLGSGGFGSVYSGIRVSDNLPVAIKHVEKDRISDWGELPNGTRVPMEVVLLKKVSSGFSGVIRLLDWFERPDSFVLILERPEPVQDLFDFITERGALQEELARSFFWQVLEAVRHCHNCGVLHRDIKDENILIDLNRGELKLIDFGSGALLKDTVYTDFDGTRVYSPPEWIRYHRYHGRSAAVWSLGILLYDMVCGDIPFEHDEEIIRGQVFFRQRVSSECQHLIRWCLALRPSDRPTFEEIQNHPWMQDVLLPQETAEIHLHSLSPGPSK

- Kd [1]: 0.0099 µM
- Kd [2]: 14 µM
- Kd [3]: 29 µM
- Kd [4]: 0.2 µM
- Kd [5]: 0.36 µM
- Kd [6]: 34 µM
- Kd [7]: 3.3 µM
- Kd [8]: 13 µM
- Kd [9]: 30 µM
- Kd [10]: 0.086 µM
- Kd [11]: 10 µM
- Kd [12]: 0.088 µM
- Kd [13]: 0.043 µM
- Kd [14]: 35 µM
- Kd [15]: 0.13 µM
- Kd [16]: 0.51 µM
- Kd [17]: 28 µM
- Kd [18]: 27 µM
- Kd [19]: 0.0054 µM
- Kd [20]: 6.4 µM
- Kd [21]: 33 µM
- Kd [22]: 0.21 µM
- Kd [23]: 34 µM
- Kd [24]: 0.056 µM
- Kd [25]: 13 µM
- Kd [26]: 30 µM
- Kd [27]: 1.3 µM
- Kd [28]: 2.6 µM
- Kd [29]: 0.17 µM
- Kd [30]: 0.067 µM
- Kd [31]: 18 µM
- Kd [32]: 27 µM
- Kd [33]: 0.7 µM
- Kd [34]: 7.1 µM
- Kd [35]: 0.083 µM
- Kd [36]: 26 µM
- Kd [37]: 7.3 µM
- Kd [38]: 8.3 µM
- Kd [39]: 0.27 µM
- Kd [40]: 8.7 µM
Compound: COc1cc2ncnc(Oc3cccc(NC(=O)Nc4cc(C(C)(C)C(F)(F)F)on4)c3)c2cc1OC
